Assay results taken from publication PMC8163216, “Macrocycle synthesis strategy based on step-wise “adding and reacting” three components enables screening of large combinatorial libraries” (Chemical Science, 2020).

What was measured:
[1] = One-pot thiol-to-amine (S-to-N) bis-alkylation/conjugate addition/SNAr: Cys thiol and N-terminal secondary benzylamine (peptoid-type) bridged by bis-electrophile linkers 1-6 (8 equiv, 800 uM) after TCEP removal of the S-SO3H group (TCEP 400 uM, excess benzylamine 1.6 mM present); details: the molecule shown is the open-chain precursor, 60 mM aq NH4HCO3 pH 8 with about 5% DMSO, 0.1 mM, 37.0 °C, 3 steps, scale: %
human thrombin = target: T1, human thrombin (Homo sapiens, UniProt P00734); assay: Determination of the inhibitory constants of purified macrocycles (thrombin, fluorogenic substrate Z-Gly-Gly-Arg-AMC); assay type: biochemical; details: for Ki: purified macrocycle, 2 nM thrombin, 50 μM Z-Gly-Gly-Arg-AMC, Ki from IC50 by Cheng-Prusoff
T1 construct: consists of two polypeptide chains of 259 (H-chain) and 37 amino acid residues; purchased Molecular Innovations
Protocol: Determination of the inhibitory constants of macrocycles
The IC50s of macrocycles were determined by measuring the residual activity of thrombin at different dilutions of macrocycle using a fluorogenic substrate. The reactions were performed in a volume of 150 µl in 96-well plates. A volume of 50 µl of 2-fold dilutions of macrocycle in assay buffer (10 mM Tris-Cl [pH 7.4], 150 mM NaCl, 10 mM MgCl2, 1 mM CaCl2, 0.1% w/v BSA, 0.01% v/v Triton-X100) were pipetted to the wells. A volume of 50 µl of thrombin (6 nM) in assay buffer was added to each well to reach a final concentration of 2 nM and was incubated for 15 min. A volume of 50 µl of the fluorogenic substrate Z-Gly-Gly-Arg-AMC (150 µM) in assay buffer containing 3% DMSO was added to reach a final substrate concentration of 50 µM and 1% DMSO. Fluorescence intensity was measured for 30 min using an Infinite M200Pro plate reader (Tecan; excitation at 368 nm, emission at 467 nm) with a read every minute.
Sigmoidal curves were fitted to the data using Prism 5 (GraphPad software) and the following dose- […]
wherein x is macrocycle concentration, y is % protease activity, and p is Hill slope. IC50 values were derived […]
The inhibitory constants (Ki) were calculated using the following equation of Cheng and Prusoff: […]
wherein IC50 is the functional strength of the inhibitor, [S]0 is the total substrate concentration, and Km is the Michaelis-Menten constant. The Km for thrombin and the substrate Z-Gly-Gly-Arg-AMC was determined to […]

[2] = tested on: panel of nine human proteases; assay: Determination of target specificity against a panel of trypsin-like serine proteases; assay type: biochemical; details: panel of nine human proteases structurally and functionally most similar to thrombin
Protocol: (§1) Determination of target specificity
(§2) The specificity was profiled by testing the inhibition of a panel of trypsin-like serine proteases using fluorogenic or chromogenic substrates. Dilutions of macrocycle were prepared ranging from 40 µM to 40 nM for all proteases except for thrombin (1 µM to 1 nM). The following final concentrations of human proteases were used: 2 nM thrombin (Molecular Innovations), 0.6 nM activated protein C (APC, Molecular Innovations), 1.5 nM uPA (Molecular Innovations), 0.25 nM plasma kallikrein (Innovative Research), 1 nM factor XIa (Innovative Research), 7.5 nM tPA (Molecular Innovations), 0.1 nM trypsin (Molecular Innovations), 3 nM factor XIIa (Molecular Innovations), and 2.5 nM plasmin (Molecular Innovations). […]
(§3) A volume of 50 µl of the substrate in assay buffer containing 3% DMSO was added. Fluorescence intensity was measured for 30 min using an Infinite M200Pro plate reader (Tecan; excitation at 368 nm, emission at 467 nm) with a read every minute. For APC protease, absorption was measured at 405 nm with the same plate reader for a period of 30 min with a read every minute. […] The inhibitory constants were calculated as described above. […]
(§4) Coagulation times were determined in human plasma using a STAGO STart4 coagulation analyzer (Diagnostica). […]
(§5) ball stopped moving was recorded as coagulation time. […]

human plasma [3] = assay: Activated partial thromboplastin time (aPTT), intrinsic coagulation pathway, in human plasma; assay type: biochemical; details: EC2× = concentration for 2-fold increase in coagulation time
Protocol: as §1, §2, §3, §4, §5

human plasma [4] = assay: Prothrombin time (PT), extrinsic coagulation pathway, in human plasma; assay type: biochemical; details: EC2× = concentration for 2-fold increase in coagulation time
Protocol: as §1, §2, §3, §4, §5

SMILES: C=CS(=O)(=O)CCSC[C@H](NC(=O)CNC(=O)CNCc1ccccc1)C(=O)NCC(=O)N[C@@H](Cc1c[nH]c2ccccc12)C(N)=O [Bn-NH-CH2CO-Gly-Cys(SH)-Gly-Trp-NH2]
- ring closure, conversion by HPLC ([1]; 15-membered ring): 93

SMILES: C=CS(=O)(=O)CS(=O)(=O)CCSC[C@H](NC(=O)CNC(=O)CNCc1ccccc1)C(=O)NCC(=O)N[C@@H](Cc1c[nH]c2ccccc12)C(N)=O [Bn-NH-CH2CO-Gly-Cys(SH)-Gly-Trp-NH2]
- ring closure, conversion by HPLC ([1]; 17-membered ring): 41

SMILES: NC(=O)[C@H](Cc1c[nH]c2ccccc12)NC(=O)CNC(=O)[C@H](CSCc1ccc(CBr)cc1)NC(=O)CNC(=O)CNCc1ccccc1 [Bn-NH-CH2CO-Gly-Cys(SH)-Gly-Trp-NH2]
- ring closure, conversion by HPLC ([1]; 16-membered ring): 18

SMILES: NC(=O)[C@H](Cc1c[nH]c2ccccc12)NC(=O)CNC(=O)[C@H](CSCc1cccc(CBr)n1)NC(=O)CNC(=O)CNCc1ccccc1 [Bn-NH-CH2CO-Gly-Cys(SH)-Gly-Trp-NH2]
- ring closure, conversion by HPLC ([1]; 15-membered ring): 86

SMILES: NC(=O)[C@H](Cc1c[nH]c2ccccc12)NC(=O)CNC(=O)[C@H](CSCc1ccccc1CBr)NC(=O)CNC(=O)CNCc1ccccc1 [Bn-NH-CH2CO-Gly-Cys(SH)-Gly-Trp-NH2]
- ring closure, conversion by HPLC ([1]; 14-membered ring): 32

SMILES: NC(=O)[C@H](Cc1c[nH]c2ccccc12)NC(=O)CNC(=O)[C@H](CSc1ncnc(Cl)n1)NC(=O)CNC(=O)CNCc1ccccc1 [Bn-NH-CH2CO-Gly-Cys(SH)-Gly-Trp-NH2]
- ring closure, conversion by HPLC ([1]; 13-membered ring): 67

SMILES: N=C(N)NCCCC1NC(=O)CC2CCCN2C(=O)CN(Cc2ccccc2CO)Cc2ccccc2CSCC(C(N)=O)NC1=O (centres unmarked) [macrocycle 7]
- Ki (human thrombin): 59 ± 6 nM

SMILES: N=C(N)NCCC[C@@H]1NC(=O)C[C@H]2CCCN2C(=O)CN(Cc2ccco2)Cc2ccccc2CSC[C@@H](C(N)=O)NC1=O [macrocycle 57]
- Ki (human thrombin): 10.6 ± 2 nM
- fold improvement of Ki over parental macrocycle 7 (human thrombin; thrombin Ki relative to 7): 5.5 fold
- target selectivity [2]: high target selectivity
- fold better aPTT EC2× than parent 7 (human plasma [3]): 1.4 fold
- fold better PT EC2× than parent 7 (human plasma [4]): 1.9 fold

SMILES: N=C(N)NCCC[C@@H]1NC(=O)C[C@H]2CCCN2C(=O)CN(Cc2ccccc2CO)Cc2ccccc2CSC[C@@H](C(N)=O)NC1=O [macrocycle 60]
- Ki (human thrombin): 95 ± 17 nM

SMILES: N=C(N)NCCC[C@@H]1NC(=O)C[C@@H]2CCCN2C(=O)CN(Cc2ccco2)Cc2ccccc2CSC[C@@H](C(N)=O)NC1=O [macrocycle 61]
- Ki (human thrombin): 520 ± 110 nM
